Test results published in patent publication US20220079993A1, “NON-NATURALLY OCCURRING THERMOGENIC ADIPOCYTES, METHODS OF MAKING, AND METHODS OF USE THEREOF” (University of Georgia Research Foundation, Inc., priority 2019, published 2022).
Where a name gives a salt, the structure may show the parent alone. Read-outs that look alike come from different tables or passages of the source.

Columns and labels:
beige adipocytes [1] = experiment: Lipolysis validation assays of primary hits at three concentrations; assay type: cell-based, human; set-up: % of Control (1) / % of Control (2) / % of Control (3) / % of Control (4): unit of the concentration uncertain; conditions: for activity at 2.2 µM / activity at 6.7 µM / activity at 20 µM / activity at 2200 µM: Homo sapiens, Adipocyte, 24 h; for activity at 2.2 µM: Conc. 2.2 µM; for activity at 6.7 µM: Conc. 6.7 µM; for activity at 20 µM: Conc. 20 µM; for activity at 2200 µM: Conc. 2.2 mM
Method: (§1) ADSCs were seeded at 5000 cell/cm^2 in 12-well plates, grown for 5 days and then induced to differentiate into GC for 20 days. Prior to the assay, cells were washed in DPBS twice and then incubated with DMEM with 2% fatty-acid free BSA (Santa Crus, sc-500949) and Triascin C (5 μM). Cells were treated with forskolin (20 μM) for indicated time periods and supernatant samples were collected. Lipolysis assay was performed with free glycerol reagent (Sigma, F6428-40ML), according to manufacturer instructions.
(§2) Lipolysis assays were performed after 24 hours of drug treatment by measuring free glycerol released in the 384-well format, using the procedure described above. Absorbance for each compound was normalized to untreated control samples for each plate and calculated as a percent of the control. Cut-offs for “activating” and “inhibiting” compounds were set at 2-fold. Validation assays were performed for select compounds at a range of concentration doses.
Next, lipolysis assays were performed for all 111 compounds identified in the primary screen at three different concentrations, of which twenty-four were selected for further analysis based on their newness and/or reproducibility.

beige adipocytes [2] = experiment: High-throughput primary screen, lipolysis assay (glycerol release), 384-well; assay type: cell-based, human; conditions: 20 μM, 24 hours of drug treatment, vs untreated beige adipocytes
Method: as §1, with “Prior to the assay, cells were washed in DPBS twice and then incubated with DMEM with 2% fatty-acid free BSA (Santa Crus, sc-500949) and Triascin C (5 μM).” left out
ADSCs were plated in 384-well plates at a density of 5000 cell/cm2 and grown to confluency over ˜4 days. Cells were then differentiated to beige adipocytes using B-8 medium for 21 days. All cell culture and incubations in the 384-well format were done at 37° C. and 5% CO2. […] The use of FDA-approved drugs may allow for re-purposing for therapeutic use.
as §2

SMILES: CO[C@H]1CC[C@@H](O[C@H]2C[C@H]([C@]3(C)CC[C@]4(C[C@H](O)[C@@H](C)[C@@H]([C@@H](C)/C=C(\C)C(=O)[C@H](C)C[C@H](C)C(=O)O)O4)O3)O[C@]3(O[C@@H]([C@H]4O[C@@](O)(CO)[C@H](C)C[C@@H]4C)C[C@@H]3C)[C@@H]2C)O[C@@H]1C [Nanchangmycin]
- % of Control (1) (beige adipocytes [1]; Conc. 2.2 (unit uncertain)): 259.29 % of Control
- % of Control (2) (beige adipocytes [1]; Conc. 2.2 (unit uncertain)): 209.65 % of Control
- % of Control (3) (beige adipocytes [1]; Conc. 2.2 (unit uncertain)): 192.42 % of Control
- % of Control (4) (beige adipocytes [1]; Conc. 2.2 (unit uncertain)): 124.48 % of Control
- % of Control (1) (beige adipocytes [1]; Conc. 6.7 (unit uncertain)): 196.07 % of Control
- % of Control (2) (beige adipocytes [1]; Conc. 6.7 (unit uncertain)): 104.94 % of Control
- % of Control (3) (beige adipocytes [1]; Conc. 6.7 (unit uncertain)): 147.69 % of Control
- % of Control (4) (beige adipocytes [1]; Conc. 6.7 (unit uncertain)): 106.09 % of Control
- % of Control (1) (beige adipocytes [1]; Conc. 20 (unit uncertain)): 147.14 % of Control
- % of Control (2) (beige adipocytes [1]; Conc. 20 (unit uncertain)): 168.94 % of Control
- % of Control (3) (beige adipocytes [1]; Conc. 20 (unit uncertain)): 98.9 % of Control
- % of Control (4) (beige adipocytes [1]; Conc. 20 (unit uncertain)): 168.85 % of Control

SMILES: CNC(=O)c1ccc(C)c(-n2c(C)cc(OCc3ccc(F)cc3F)c(Br)c2=O)c1 [PH-797804]
- % Control (relative levels of glycerol release) (beige adipocytes [2]): 38.23 % control

SMILES: CNC[C@H](O)c1cccc(O)c1 [Phenylephrine HCl]
- activity at 2.2 µM (beige adipocytes [1]; read-out: % of Control (2)): 253%
- activity at 2.2 µM (beige adipocytes [1]; read-out: % of Control (4)): 240%
- activity at 6.7 µM (beige adipocytes [1]; read-out: % of Control (1)): 271%
- activity at 6.7 µM (beige adipocytes [1]; read-out: % of Control (2)): 266%
- activity at 6.7 µM (beige adipocytes [1]; read-out: % of Control (3)): 240%
- activity at 6.7 µM (beige adipocytes [1]; read-out: % of Control (4)): 232%
- activity at 20 µM (beige adipocytes [1]; read-out: % of Control (1)): 353%
- activity at 20 µM (beige adipocytes [1]; read-out: % of Control (2)): 373%
- activity at 20 µM (beige adipocytes [1]; read-out: % of Control (3)): 248%
- activity at 20 µM (beige adipocytes [1]; read-out: % of Control (4)): 232%
- activity at 2200 µM (beige adipocytes [1]; read-out: % of Control (1)): 338%
- activity at 2200 µM (beige adipocytes [1]; read-out: % of Control (3)): 221%

SMILES: CC(C)NC[C@H](O)c1ccc(O)c(O)c1.O=C(O)C(O)C(O)C(=O)O [R(+)-Isoproterenol (+)-bitartrate]
- % Control (relative levels of glycerol release) (beige adipocytes [2]): 363.04 % control

SMILES: COC1(C2=NCCN2)COc2ccccc2O1.Cl (centres unmarked) [RX 821002 hydrochloride]
- % Control (relative levels of glycerol release) (beige adipocytes [2]): 30.77 % control

SMILES: CC(C)NC[C@@H](O)c1ccc(O)c(O)c1.O=C(O)C(O)C(O)C(=O)O [S(−)-Isoproterenol (+)-bitartrate]
- % Control (relative levels of glycerol release) (beige adipocytes [2]): 367.84 % control

SMILES: Oc1ccc(-c2nc(-c3ccc(F)cc3)c(-c3ccncc3)[nH]2)cc1 [SB202190 (FHPI)]
- % Control (relative levels of glycerol release) (beige adipocytes [2]): 34.88 % control

SMILES: C[n+]1cc2c3c(ccc2c2ccc4cc5c(cc4c21)OCO5)OCO3 [Sanguinarine]
- activity at 2.2 µM (beige adipocytes [1]; read-out: % of Control (2)): 142%
- activity at 2.2 µM (beige adipocytes [1]; read-out: % of Control (4)): 121%
- activity at 6.7 µM (beige adipocytes [1]; read-out: % of Control (1)): 218%
- activity at 6.7 µM (beige adipocytes [1]; read-out: % of Control (2)): 198%
- activity at 6.7 µM (beige adipocytes [1]; read-out: % of Control (3)): 128%
- activity at 6.7 µM (beige adipocytes [1]; read-out: % of Control (4)): 101%
- activity at 20 µM (beige adipocytes [1]; read-out: % of Control (1)): 185%
- activity at 20 µM (beige adipocytes [1]; read-out: % of Control (2)): 155%
- activity at 20 µM (beige adipocytes [1]; read-out: % of Control (3)): 133%
- activity at 20 µM (beige adipocytes [1]; read-out: % of Control (4)): 160%
- activity at 2200 µM (beige adipocytes [1]; read-out: % of Control (1)): 179%
- activity at 2200 µM (beige adipocytes [1]; read-out: % of Control (3)): 71.3%
